The source made the active and inactive calls. The calls are words filed in the database; no cut-off is given here.
Columns and labels:
HCT-116 [1] = experiment: Induction of cell cycle arrest in human HCT-116 cells assessed as decrease in S phase cells incubated for 48 hrs by propidium iodide staining based flow cytometry analysis; type: functional; conditions: dose 2.5-10 µM
HCT-116 [2] = experiment: Induction of apoptosis in human HCT-116 cells assessed as viable cells at 10 uM incubated for 48 hrs by Annexin V-PE and propidium iodide staining based flow cytometry analysis (reference value: 97.8%); type: functional; conditions: read-out: Activity
RKO [3] = experiment: Induction of apoptosis in human RKO cells assessed as early apoptotic cells at 5 uM incubated for 48 hrs by Annexin V-PE and propidium iodide staining based flow cytometry analysis (reference value: 0.2%); type: functional
RKO [4] = experiment: Inhibition of colony formation in human RKO cells incubated about 10 days with every 3 days of media replacement by crystal violet staining based assay; type: functional, cell-based; conditions: dose 1-4 µM, time 10.0 day
HCT-116 [5] = experiment: Induction of cell cycle arrest in human HCT-116 cells assessed as downregulation of CDK6 expression at 2.5 to 10 uM incubated for 48 hrs by Western blotting analysis; type: functional, cell-based; conditions: dose 2.5-10 µM
HCT-116 [6] = experiment: Induction of apoptosis in human HCT-116 cells assessed as late apoptotic cells at 5 uM incubated for 48 hrs by Annexin V-PE and propidium iodide staining based flow cytometry analysis (reference value: 0.5%); type: functional
RKO [7] = experiment: Induction of cell cycle arrest in human RKO cells assessed as upregulation of p21 expression at 2.5 to 10 uM incubated for 48 hrs by Western blotting analysis; type: functional, cell-based; conditions: dose 2.5-10 µM
HCT-116 [8] = experiment: Antitumor activity against human HCT-116 cells xenografted in BALB/c mouse assessed as reduction in tumor weight at 5 to 10 mg/kg, ip administered every 2 days; type: functional, organism-based; conditions: dose 5-10 mg/kg
HCT-116 [9] = experiment: Induction of apoptosis in human HCT-116 cells assessed as upregulation of cleaved caspase-3 expression incubated for 48 hrs by Western blotting analysis; type: functional, cell-based; conditions: dose 2.5-10 µM
RKO [10] = experiment: Cytotoxicity against human RKO cells at 5 uM incubated for 72 hrs by MTS assay; type: functional
HCT-116 [11] = experiment: Cytotoxicity against human HCT-116 cells incubated for 72 hrs by MTS assay; type: functional, cell-based; conditions: HCT-116, 72 h
RKO [12] = experiment: Induction of cell cycle arrest in human RKO cells assessed as downregulation of CDK6 expression at 2.5 to 10 uM incubated for 48 hrs by Western blotting analysis; type: functional, cell-based; conditions: dose 2.5-10 µM
HCT-116 [13] = experiment: Induction of apoptosis in human HCT-116 cells assessed as upregulation of cleaved caspase-7 expression incubated for 48 hrs by Western blotting analysis; type: functional, cell-based; conditions: dose 2.5-10 µM
HCT-116 [14] = experiment: Antitumor activity against human HCT-116 cells xenografted in BALB/c mouse assessed as reduction in Ki67 protein expression at 5 to 10 mg/kg, ip measured every 2 days by immunohistochemistry analysis; type: functional, organism-based; conditions: dose 5-10 mg/kg
[15] = Acute toxicity in BALB/c mouse assessed as liver lesion at 50 to 100 mg/kg, ip measured every 2 days by H and E staining based assay; type: organism-based; conditions: in vivo, 48 h, dose 50-100 mg/kg
[16] = Cytotoxicity against human NCM460 cells incubated for 72 hrs by MTS assay; type: toxicity, cell-based
HCT-116 [17] = experiment: Induction of cell cycle arrest in human HCT-116 cells assessed as accumulation of cells at G0/G1 phase incubated for 48 hrs by propidium iodide staining based flow cytometry analysis; type: functional; conditions: dose 2.5-10 µM
HCT-116 [18] = experiment: Induction of apoptosis in human HCT-116 cells assessed as late apoptotic cells at 10 uM incubated for 48 hrs by Annexin V-PE and propidium iodide staining based flow cytometry analysis (reference value: 0.5%); type: functional
[19] = Acute toxicity in BALB/c mouse assessed as heart lesion at 50 to 100 mg/kg, ip measured every 2 days by H and E staining based assay; type: organism-based; conditions: in vivo, 48 h, dose 50-100 mg/kg
HCT-116 [20] = experiment: Effect on AKT level in human HCT-116 cells at 2.5 to 10 uM incubated for 48 hrs by Western blotting analysis; type: functional, cell-based; conditions: dose 2.5-10 µM
HCT-116 [21] = experiment: Effect on RB1 expression in human HCT-116 cells at 2.5 to 10 uM incubated for 48 hrs by Western blotting analysis; type: functional, cell-based; conditions: dose 2.5-10 µM
HT-29 = experiment: Cytotoxicity against human HT-29 cells at 5 uM incubated for 72 hrs by MTS assay; type: functional
RKO [22] = experiment: Induction of cell cycle arrest in human RKO cells assessed as downregulation of p-Rb expression at 2.5 to 10 uM incubated for 48 hrs by Western blotting analysis; type: functional, cell-based; conditions: dose 2.5-10 µM
HCT-116 [23] = experiment: Effect on CDK2 expression in human HCT-116 cells at 2.5 to 10 uM incubated for 48 hrs by Western blotting analysis; type: functional, cell-based; conditions: dose 2.5-10 µM
RKO [24] = experiment: Induction of cell cycle arrest in human RKO cells assessed as upregulation of p53 expression at 2.5 to 10 uM incubated for 48 hrs by Western blotting analysis; type: functional, cell-based; conditions: dose 2.5-10 µM
HCT-116 [25] = experiment: Antitumor activity against human HCT-116 cells xenografted in BALB/c mouse assessed as reduction in tumor volume at 5 to 10 mg/kg, ip measured every 2 days; type: functional, organism-based; conditions: dose 5-10 mg/kg
[26] = Toxicity in BALB/c nude mouse assessed as adverse effect at 5 to 10 mg/kg, ip administered every 2 days; type: organism-based; conditions: in vivo, 48 h, dose 5-10 mg/kg
RKO [27] = experiment: Effect on RB1 expression in human RKO cells at 2.5 to 10 uM incubated for 48 hrs by Western blotting analysis; type: functional, cell-based; conditions: dose 2.5-10 µM
HCT-116 [28] = experiment: Inhibition of colony formation in human HCT-116 cells at 4 uM incubated for 10 days with every 3 days of media replacement by crystal violet staining based assay; type: functional; conditions: HCT-116, 240 h, time 10 day
RKO [29] = experiment: Induction of apoptosis in human RKO cells assessed as late apoptotic cells at 10 uM incubated for 48 hrs by Annexin V-PE and propidium iodide staining based flow cytometry analysis (reference value: 0.3%); type: functional
HCT-116 [30] = experiment: Induction of apoptosis in human HCT-116 cells assessed as necrotic cells at 10 uM incubated for 48 hrs by Annexin V-PE and propidium iodide staining based flow cytometry analysis (reference value: 1.3%); type: functional
RKO [31] = experiment: Induction of apoptosis in human RKO cells assessed as viable cells at 2.5 uM incubated for 48 hrs by Annexin V-PE and propidium iodide staining based flow cytometry analysis (reference value: 99.2%); type: functional; conditions: read-out: Activity
HCT-116 [32] = experiment: Antitumor activity against human HCT-116 cells xenografted in BALB/c mouse assessed as tumor growth suppression at 5 to 10 mg/kg, ip measured every 2 days; type: functional, organism-based; conditions: dose 5-10 mg/kg
HCT-116 [33] = experiment: Induction of apoptosis in human HCT-116 cells assessed as early apoptotic cells at 5 uM incubated for 48 hrs by Annexin V-PE and propidium iodide staining based flow cytometry analysis (reference value: 0.4%); type: functional
[34] = Acute toxicity in BALB/c mouse assessed as body weight loss at 50 to 100 mg/kg, ip measured every 2 days; type: organism-based; conditions: in vivo, 48 h, dose 50-100 mg/kg
RKO [35] = experiment: Induction of apoptosis in human RKO cells assessed as late apoptotic cells at 5 uM incubated for 48 hrs by Annexin V-PE and propidium iodide staining based flow cytometry analysis (reference value: 0.3%); type: functional
HCT-116 [36] = experiment: Induction of cell cycle arrest in human HCT-116 cells assessed as downregulation of p-Rb expression at 2.5 to 10 uM incubated for 48 hrs by Western blotting analysis; type: functional, cell-based; conditions: dose 2.5-10 µM
RKO [37] = experiment: Induction of cell cycle arrest in human RKO cells assessed as downregulation of CDK4 expression at 2.5 to 10 uM incubated for 48 hrs by Western blotting analysis; type: functional, cell-based; conditions: dose 2.5-10 µM

C=C(C)C(=O)N1CCc2cccc(C3=CC(=O)N(C)C3=O)c21
Activity (HCT-116 [1]): Dose-Dependent Effect | viability at 10 µM (HCT-116 [2]): 83.1% | Activity (RKO [3]): 1.5% | inhibition (RKO [4]): Dose-Dependent Effect | Activity (HCT-116 [5]): Active | Activity (HCT-116 [6]): 1.7% | Activity (RKO [7]): Active | Activity (HCT-116 [8]): Active | Activity (HCT-116 [9]): Dose-Dependent Effect | Activity (RKO [10]): 100.1% | IC50 (HCT-116 [11]): 1.57 µM | Activity (RKO [12]): Active | Activity (HCT-116 [13]): Dose-Dependent Effect | Activity (HCT-116 [14]): Active | Activity [15]: Non-Toxic | IC50 at 72 h [16]: 63.7 µM | Activity (HCT-116 [17]): Dose-Dependent Effect | Activity (HCT-116 [18]): 4.6% | Activity [19]: Non-Toxic | Activity (HCT-116 [20]): inactive | Activity (HCT-116 [21]): inactive | Activity (HT-29): 99.28% | Activity (RKO [22]): Active | Activity (HCT-116 [23]): inactive | Activity (RKO [24]): Active | Activity (HCT-116 [25]): Active | Activity [26]: Non-Toxic | Activity (RKO [27]): inactive | inhibition at 4 µM (HCT-116 [28]): 100% | Activity (RKO [29]): 1.1% | Activity (HCT-116 [30]): 7.2% | viability at 2.5 µM (RKO [31]): 99% | Activity (HCT-116 [32]): Active | Activity (HCT-116 [33]): 1.5% | Activity [34]: Non-Toxic | Activity (RKO [35]): 0.4% | Activity (HCT-116 [36]): Active | Activity (RKO [37]): Active
